18 compounds from PubChem BioAssay AID328 (DTP/NCI, 2004) can be followed below.

Inconclusive results and toxic doses are left out.

This assay deals with BDF1 mice, P388 leukemia ip, median survival T/C. Nature of the assay: NCI In Vivo Anticancer Drug Screen. Data for tumor model P388 Leukemia (intraperitoneal) in B6D2F1 (BDF1) mice. The following applies: endpoint: median survival time, higher = longer survival. An outline of the steps:
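Steps: implant the tumour, treat one group with compound and another with vehicle, record survival, then divide treated by control.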

The mark [1] stands for this setting: dose: 100.0 mg/kg/injection, schedule: Q04DX003 (ip), vehicle: saline.
The mark [2] stands for this setting: dose: 200.0 mg/kg/injection, schedule: Q01DX009 (ip), vehicle: saline.
Where [3] appears, read: dose: 200.0 mg/kg/injection, schedule: Q04DX003 (ip), vehicle: saline.
Where [4] appears, read: dose: 400.0 mg/kg/injection, schedule: Q04DX003 (ip), vehicle: saline.
Setting [5] is: dose: 100.0 mg/kg/injection, schedule: Q01DX009 (ip), vehicle: saline with Tween-80.
Where [6] appears, read: dose: 200.0 mg/kg/injection, schedule: Q01DX009 (ip), vehicle: saline with Tween-80.
Where [7] appears, read: dose: 50.0 mg/kg/injection, schedule: Q01DX009 (ip), vehicle: saline with Tween-80.
Where [8] appears, read: dose: 100.0 mg/kg/injection, schedule: Q01DX009 (ip), vehicle: Klucel (hydroxypropylcellulose) (HPC).
Where [9] appears, read: dose: 100.0 mg/kg/injection, schedule: Q04DX003 (ip), vehicle: Klucel (hydroxypropylcellulose) (HPC).
Setting [10] is: dose: 200.0 mg/kg/injection, schedule: Q01DX009 (ip), vehicle: Klucel (hydroxypropylcellulose) (HPC).
Setting [11] is: dose: 200.0 mg/kg/injection, schedule: Q04DX003 (ip), vehicle: Klucel (hydroxypropylcellulose) (HPC).
The mark [12] stands for this setting: dose: 400.0 mg/kg/injection, schedule: Q04DX003 (ip), vehicle: Klucel (hydroxypropylcellulose) (HPC).
The mark [13] stands for this setting: dose: 25.0 mg/kg/injection, schedule: Q01DX009 (ip), vehicle: saline with Tween-80.
[14] abbreviates: dose: 50.0 mg/kg/injection, schedule: Q04DX003 (ip), vehicle: saline with Tween-80.
[15] abbreviates: dose: 100.0 mg/kg/injection, schedule: Q04DX003 (ip), vehicle: saline with Tween-80.
Setting [16] is: dose: 200.0 mg/kg/injection, schedule: Q04DX003 (ip), vehicle: saline with Tween-80.
The mark [17] stands for this setting: dose: 400.0 mg/kg/injection, schedule: Q01DX009 (ip), vehicle: Klucel (hydroxypropylcellulose) (HPC).
Setting [18] is: dose: 25.0 mg/kg/injection, schedule: Q04DX003 (ip), vehicle: Klucel (hydroxypropylcellulose) (HPC).
Setting [19] is: dose: 50.0 mg/kg/injection, schedule: Q04DX003 (ip), vehicle: Klucel (hydroxypropylcellulose) (HPC).

Consider `CNNCc1ccc(C(=O)NC(N)=O)cc1`, for which the T/C is, setting by setting: under setting [1], 95 % of control; (dose: 133.0 mg/kg/injection, schedule: Q01DX009 (ip), vehicle: saline) 111 % of control; under setting [2], 100 % of control; under setting [3], 95 % of control; (dose: 400.0 mg/kg/injection, schedule: Q01DX009 (ip), vehicle: saline) 107 % of control; under setting [4], 113 % of control.
Take `CCSCCSCC`: the T/C under setting [5] was 107 % of control; the T/C under setting [1] was 120 % of control; the T/C under setting [6] is 103 % of control; the T/C under setting [3] was 115 % of control; the T/C under setting [4] was 120 % of control.
`CN(C)c1ccc(/C=C/c2cc(N(CCO)CCO)c3ccccc3n2)cc1`: the T/C runs as follows: under setting [7], 100 % of control; under setting [5], 99 % of control; under setting [6], 91 % of control.
In the case of `O=C(Nc1cc(Cl)ccc1Cl)c1ccccc1Cl`, the T/C under setting [8] was 100 % of control; the T/C under setting [9] is 104 % of control; the T/C under setting [10] was 113 % of control; the T/C under setting [11] is 104 % of control; the T/C under setting [12] is 100 % of control.
As for `CC(O)CC1CCCCN1O` (configuration not stated), the T/C was 110 % of control (dose: 100.0 mg/kg/injection, schedule: Q04DX002 (ip), vehicle: saline with Tween-80); 101 % of control (dose: 200.0 mg/kg/injection, schedule: Q04DX002 (ip), vehicle: saline with Tween-80); 100 % of control (dose: 400.0 mg/kg/injection, schedule: Q04DX002 (ip), vehicle: saline with Tween-80).
For the compound `CC(CO)(CI)[n+]1ccccc1` (configuration not stated), the T/C reads like this: under setting [13], 103 % of control; under setting [7], 107 % of control; under setting [14], 95 % of control; under setting [15], 100 % of control.
As for `COc1ccc(NC(=O)Oc2c(C(C)C)cccc2C(C)C)cc1`, the T/C was 100 % of control under setting [9], 91 % of control under setting [11] and 100 % of control under setting [12].
`NC(=O)CNC1=C(N2CC2)C(=O)C(NCC(N)=O)=C(N2CC2)C1=O`: the T/C is, setting by setting: (dose: 2.0 mg/kg/injection, schedule: Q01DX009 (ip), vehicle: saline) 171 % of control; (dose: 4.0 mg/kg/injection, schedule: Q01DX009 (ip), vehicle: saline) 166 % of control; (dose: 8.0 mg/kg/injection, schedule: Q01DX009 (ip), vehicle: saline) 116 % of control.
For the compound `O=C1C=C(NCc2ccccc2)CCC1`, the T/C by setting is: under setting [13], 108 % of control; under setting [7], 100 % of control; (dose: 50.0 mg/kg/injection, schedule: Q01DX009 (ip), vehicle: saline) 96 % of control; under setting [2], 105 % of control.
With `CCOC(=O)C(=CN(C(C)C)C(C)C)C(=O)OCC`, the T/C was 109 % of control under setting [14], 104 % of control under setting [15] and 109 % of control under setting [16].
For the compound `CCc1ccc(C2=C(O)C(=O)C(c3ccccc3)=C(O)C2=O)cc1`, the T/C runs as follows: (dose: 12.5 mg/kg/injection, schedule: Q01DX010 (ip), vehicle: saline) 109 % of control; (dose: 50.0 mg/kg/injection, schedule: Q01DX010 (ip), vehicle: saline) 159 % of control.
Turning to `CN(C)c1ccc(C=C(C#N)C#N)cc1`, the T/C by setting is: under setting [9], 100 % of control; under setting [10], 90 % of control; under setting [11], 100 % of control; under setting [17], 113 % of control; under setting [12], 90 % of control.
Regarding `CCOC(=O)c1cc(C(=O)OCC)c(C#N)c(=O)[nH]1`, the T/C by setting is: under setting [8], 96 % of control; under setting [9], 91 % of control; under setting [11], 91 % of control; under setting [17], 92 % of control; under setting [12], 100 % of control.
Consider `Cc1sc([N+](=O)[O-])cc1[N+](=O)[O-]`, for which the T/C reads like this: under setting [18], 91 % of control; under setting [19], 95 % of control; under setting [9], 91 % of control.
`CCCCCCCCCCCCCC[N+](C)(C)CCCCCCCCCCCCCC`: the T/C (dose: 6.25 mg/kg/injection, schedule: Q01DX009 (ip), vehicle: saline) was 120 % of control; the T/C (dose: 16.5 mg/kg/injection, schedule: Q01DX009 (ip), vehicle: saline) is 87 % of control; the T/C (dose: 17.0 mg/kg/injection, schedule: Q01DX009 (ip), vehicle: saline) is 119 % of control; the T/C (dose: 25.0 mg/kg/injection, schedule: Q04DX003 (ip), vehicle: saline) was 118 % of control; the T/C (dose: 37.0 mg/kg/injection, schedule: Q01DX009 (ip), vehicle: saline) was 119 % of control; the T/C (dose: 50.0 mg/kg/injection, schedule: Q04DX003 (ip), vehicle: saline) was 104 % of control.
`Cc1ccc(C2(C#N)CCCCC2)cc1`: the T/C (dose: 66.0 mg/kg/injection, schedule: Q01DX009 (ip), vehicle: saline with Tween-80) was 116 % of control; the T/C under setting [5] is 120 % of control; the T/C under setting [15] is 100 % of control; the T/C (dose: 150.0 mg/kg/injection, schedule: Q01DX009 (ip), vehicle: saline with Tween-80) is 112 % of control; the T/C under setting [6] is 108 % of control; the T/C under setting [16] is 108 % of control. The T/C (dose: 400.0 mg/kg/injection, schedule: Q01DX009 (ip), vehicle: saline with Tween-80) was 116 % of control and the T/C (dose: 400.0 mg/kg/injection, schedule: Q04DX003 (ip), vehicle: saline with Tween-80) was 112 % of control.
Turning to `BrCc1c(CBr)c(CBr)c(CBr)c(CBr)c1CBr`, the T/C is, setting by setting: (dose: 25.0 mg/kg/injection, schedule: Q01DX009 (ip), vehicle: Klucel (hydroxypropylcellulose) (HPC)) 95 % of control; under setting [18], 109 % of control; (dose: 50.0 mg/kg/injection, schedule: Q01DX009 (ip), vehicle: Klucel (hydroxypropylcellulose) (HPC)) 100 % of control; under setting [19], 100 % of control; under setting [8], 109 % of control; under setting [9], 95 % of control.
`CC1=CCC(CC(N)=O)C1(C)C` (configuration not stated): the T/C runs as follows: (dose: 100.0 mg/kg/injection, schedule: Q01DX001 (ip), vehicle: saline with Tween-80) 105 % of control; (dose: 200.0 mg/kg/injection, schedule: Q01DX001 (ip), vehicle: saline with Tween-80) 103 % of control; (dose: 400.0 mg/kg/injection, schedule: Q01DX001 (ip), vehicle: saline with Tween-80) 92 % of control.
